The source of these data is patent publication US10836921B2, “Ink, ink cartridge, and ink jet recording method” (CANON KABUSHIKI KAISHA, priority 2016, dated 2020).

Read-outs that look alike come from different tables or passages of the source. Some results are limits rather than exact numbers.

The nature of one data set: Surface tension. Format: physicochemical. As for the experimental part:
The present invention will now be more specifically described with reference to preferred embodiments, but the invention is not intended to be limited to the following embodiments. In the present specification, an aqueous ink for ink jet may be simply called “ink”. Physical property values are values determined at normal temperature (25° C.) unless otherwise noted.
(§1) The alcohol used as the poorly water-soluble solvent has a vapor pressure at 20° C. of 0.5 mmHg or less and a surface tension of 30.0 mN/m or more as described above. When a poorly water-soluble alcohol having a vapor pressure at 20° C. of more than 0.5 mmHg forms a film on an ejection opening of a recording head, the film evaporates unfortunately, and the effect of suppressing water evaporation is reduced. In consideration of this point, the poorly water-soluble alcohol preferably has a vapor pressure at 20° C. of 0.2 mmHg or less and more preferably 0.1 mmHg or less. Meanwhile, a poorly water-soluble alcohol having a surface tension of less than 30.0 mN/m has a weak intermolecular force, and thus the poorly water-soluble alcohol cannot form a film even when separated from an ink. In consideration of this point, the poorly water-soluble alcohol preferably has a surface tension of 36.0 mN/m or more. The poorly water-soluble alcohol preferably has a surface tension of 50 mN/m or less.

Another data set in a line: Vapor pressure at 20° C. Type of data set: physicochemical. The protocol:
as §1

The nature of data set [1]: Partition coefficient (n-octanol / water), common logarithm. To be noted: for LogPA: poorly water-soluble alcohol (solvent A); for LogPB: highly water-soluble solvent (solvent B); for Log partition coefficient: solvents used in Comparative Examples.
Data set [2] is described as follows: Solubility in water at 20° C. (saturated solubility). Type of data set: physicochemical. As for the experimental part: As the poorly water-soluble solvent, at least an alcohol having a vapor pressure at 20° C. of 0.5 mmHg or less and a surface tension of 30.0 mN/m or more (hereinafter also called “poorly water-soluble alcohol”) is used.
Setting [3] is: solvents used in Comparative Examples.

Regarding `CC(O)COc1ccccc1` (centres unmarked) [1-Phenoxy-2-propanol], the Surface tension in the data set “Surface tension” was determined as 37.7 mN/m. The Vapor pressure in the data set “Vapor pressure at 20° C.” amounted to 0.0 mmHg. The LogPA in data set [1] is reported as 1.51. The same compound yielded a Solubility in data set [2] of 1.10 g/100 g-H2O.

`CC(O)Cc1ccccc1` (centres unmarked) [1-Phenyl-2-propanol]: in “Surface tension”, the Surface tension was 37.3 mN/m. In “Vapor pressure at 20° C.”, this compound gave a Vapor pressure of 0.1 mmHg. This compound also registered a LogPA in data set [1] of 1.71. This compound also showed a Solubility in data set [2] of 0.58 g/100 g-H2O.

The compound `OCCOc1ccccc1` [2-Phenoxyethanol] gave a Surface tension in the data set “Surface tension” of 40.0 mN/m. The same compound showed a Vapor pressure in the data set “Vapor pressure at 20° C.” of 0.0 mmHg. The compound also showed a LogPA in data set [1] of 1.16. The Solubility in data set [2] is 2.67 g/100 g-H2O.

`O=C1CCCN1` [2-Pyrrolidone] displayed a LogPB in data set [1] of −1.01.

`OCCCc1ccccc1` [3-Phenyl-1-propanol] displayed a Surface tension in the data set “Surface tension” of 38.9 mN/m. Besides, in the data set “Vapor pressure at 20° C.”, the Vapor pressure worked out at 0.0 mmHg. In addition, in data set [1], the LogPA is 1.88. For the same compound, in data set [2], the Solubility turned out to be 0.57 g/100 g-H2O.

The compound `OCCCCc1ccccc1` [4-Phenyl-1-butanol] showed a Surface tension in “Surface tension” of 38.3 mN/m. Besides, the Vapor pressure in “Vapor pressure at 20° C.” turned out to be 0.0 mmHg. This compound also had a LogPA in data set [1] of 2.40. Moreover, the Solubility in data set [2] came out at 0.10 g/100 g-H2O.

Turning to `CC(=O)OCc1ccccc1` [Benzyl acetate], the Surface tension in the data set “Surface tension” (setting [3]) was determined as 35.9 mN/m. In the data set “Vapor pressure at 20° C.” (setting [3]), this compound came in with a Vapor pressure of 0.2 mmHg. The Log partition coefficient in data set [1] came to 1.84. The Solubility in data set [2] (setting [3]) was 0.30 g/100 g-H2O.

`OCc1ccccc1` [Benzyl alcohol]: the Surface tension in “Surface tension” is 39.0 mN/m. Moreover, the Vapor pressure in “Vapor pressure at 20° C.” came to 0.1 mmHg. The compound also displayed a LogPA in data set [1] of 1.03. Besides, the Solubility in data set [2] is given as 4.29 g/100 g-H2O.

Turning to `OCCO` [Ethylene glycol], the LogPB in data set [1] was −1.69.

Regarding `CCCCCO` [Example 1-Pentanol, 1-Pentanol], the Surface tension in “Surface tension” (setting [3]) is given as 25.5 mN/m. In addition, the Vapor pressure in the data set “Vapor pressure at 20° C.” (setting [3]) is on record as 1.5 mmHg. The compound further registered a Log partition coefficient in data set [1] of 1.41. Moreover, the Solubility in data set [2] (setting [3]) was 2.20 g/100 g-H2O.

`OCC(O)CO` [Glycerol] registered a LogPB in data set [1] of −2.32.

Take `C=CC(C)(O)CCC=C(C)C` (centres unmarked) [Linalool]: in “Surface tension” (setting [3]), the Surface tension came out at 26.6 mN/m. In the data set “Vapor pressure at 20° C.” (setting [3]), this compound yielded a Vapor pressure of 0.2 mmHg. Further, the Solubility in data set [2] (setting [3]) is given as 1.50 g/100 g-H2O.

On to `COCCOCCO` [Methyl carbitol], for which the LogPB in data set [1] is −1.16.

Take `OCCc1ccccc1` [Phenethyl alcohol]: in “Surface tension”, the Surface tension was found to be 39.7 mN/m. In the data set “Vapor pressure at 20° C.”, this compound returned a Vapor pressure of 0.1 mmHg. This compound also gave a Solubility in data set [2] of 2.20 g/100 g-H2O.

In the data set “Surface tension” (setting [3]), `O=CCc1ccccc1` [Phenylacetaldehyde] showed a Surface tension of 35.9 mN/m. The same compound showed a Vapor pressure in the data set “Vapor pressure at 20° C.” (setting [3]) of 0.4 mmHg.

In the case of `CC(O)CO` (centres unmarked) [Propylene glycol], the LogPB in data set [1] was −1.34.

As to `OCCOCCOCCO` [Triethylene glycol], in data set [1], the LogPB is reported as −1.87. The compound further returned a Solubility in data set [2] of at least 20 g/100 g-H2O.

In the case of `COc1ccc(C=O)cc1` [p-Anisaldehyde], in “Surface tension” (setting [3]), the Surface tension is reported as 37.2 mN/m. Further, the Vapor pressure in the data set “Vapor pressure at 20° C.” (setting [3]) is on record as 0.0 mmHg. For the same compound, in data set [2] (setting [3]), the Solubility amounted to 0.40 g/100 g-H2O.
